From patent US20250002507A1, “7,8-DIHYDRO-5H-1,6-NAPHTHYRIDINE DERIVATIVES AS POSITIVE ALLOSTERIC MODULATORS OF THE MUSCARINIC ACETYLCHOLINE RECEPTOR M4 FOR TREATING NEUROLOGICAL AND PSYCHIATRIC DISORDERS” (Vanderbilt University, priority 2021, published 2025)

How the values were obtained:
Human M4 = biological target: T1, Human M4 (Homo sapiens, UniProt P08173); experiment: mAChR M4 cell-based functional assay (calcium flux, potentiation of EC20 acetylcholine response), hM4-Gqi5 CHO-K1 cells; conditions: Table 4; for Emax at 30 µM: CHO-K1, Human M4, % ACh maximum at 30 μM, read-out: Emax (% ACh maximum at 30 μM); for EC50: potentiation of EC20 acetylcholine response, calcium flux, CHO-K1 cells, read-out: Human M4 EC50
T1 construct: expressed in transfected cells
T1 sequence (P08173 1-479): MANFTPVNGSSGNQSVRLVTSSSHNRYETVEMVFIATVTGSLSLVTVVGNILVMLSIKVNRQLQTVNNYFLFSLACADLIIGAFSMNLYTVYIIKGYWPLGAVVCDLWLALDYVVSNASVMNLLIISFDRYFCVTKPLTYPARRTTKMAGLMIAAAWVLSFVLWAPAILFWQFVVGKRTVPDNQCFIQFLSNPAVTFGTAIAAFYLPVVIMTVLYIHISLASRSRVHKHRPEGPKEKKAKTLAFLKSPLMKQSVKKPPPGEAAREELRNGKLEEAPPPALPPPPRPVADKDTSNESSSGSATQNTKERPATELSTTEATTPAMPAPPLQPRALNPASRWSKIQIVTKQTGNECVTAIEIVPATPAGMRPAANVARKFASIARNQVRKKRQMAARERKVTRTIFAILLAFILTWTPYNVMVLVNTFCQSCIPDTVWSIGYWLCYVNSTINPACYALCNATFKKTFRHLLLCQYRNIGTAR
How it was run: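 CHO-K1 cells stably expressing human M4 with chimeric Gqi5, loaded with Fluo-4 AM 50 min at 37 °C; calcium flux read by FDSS. 11-point 1:3 compound curves added, then EC20 acetylcholine at 144 s; potentiation of the EC20 response fitted by four-parameter logistic to give EC50 and Emax.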

patients = patients treated with AChE inhibitor; cited from earlier work
[1] = tested on: Alzheimer's disease patients; conditions: Bodick et al. 1997; cited from earlier work

| SMILES | Emax at 30 µM (Human M4) | EC50 (Human M4) | elevated liver transaminases, share of patients (patients) | effect on psychotic behavioral symptoms [1] |
| --- | --- | --- | --- | --- |
| [2H]C1([2H])Cc2ncc(Nc3ccncc3F)cc2C([2H])([2H])N1c1nn2cnnc2c(C)c1C [Compound 358, 6-(7,8-dimethyl-[1,2,4]triazolo[4,3-b]pyridazin-6-yl)-N-(3-fluoropyridin-4-yl)-5,6,7,8-tetrahydro-1,6-naphthyridin-5,5,7,7-d4-3-amine] | 96% | 3 nM | – | – |
| [2H]C1([2H])Cc2ncc(Nc3ccccc3F)cc2C([2H])([2H])N1c1nn2cnnc2cc1C [Compound 359, N-(2-fluorophenyl)-6-(7-methyl-[1,2,4]triazolo[4,3-b]pyridazin-6-yl)-5,6,7,8-tetrahydro-1,6-naphthyridin-5,5,7,7-d4-3-amine] | 116% | 7 nM | – | – |
| Cc1c(N2CCc3ncc(Nc4ccncc4F)cc3C2)nn2cnnc2c1C [Compound 361, 6-(7,8-dimethyl-[1,2,4]triazolo[4,3-b]pyridazin-6-yl)-N-(3-fluoropyridin-4-yl)-5,6,7,8-tetrahydro-1,6-naphthyridin-3-amine] | 100% | 2 nM | – | – |
| Cc1cc(Nc2cnc3c(c2)CN(c2nn4cnnc4cc2C)CC3)c(F)cn1 [Compound 362, N-(5-fluoro-2-methylpyridin-4-yl)-6-(7-methyl-[1,2,4]triazolo[4,3-b]pyridazin-6-yl)-5,6,7,8-tetrahydro-1,6-naphthyridin-3-amine] | 97% | 51 nM | – | – |
| Cc1cc(Nc2cnc3c(c2)CN(c2nn4cnnc4c(C)c2C)CC3)c(F)cn1 [Compound 363, 6-(7,8-dimethyl-[1,2,4]triazolo[4,3-b]pyridazin-6-yl)-N-(5-fluoro-2-methylpyridin-4-yl)-5,6,7,8-tetrahydro-1,6-naphthyridin-3-amine] | 93% | 26 nM | – | – |
| Nc1c2c(nc3ccccc13)CCCC2 [tacrine] | – | – | about 30% | – |
| CCCCCCOc1nsnc1C1=CCCN(C)C1 [xanomeline] | – | – | – | reduce psychotic behavioral symptoms |

Continued by falling EC50 (Human M4), values first:

| Emax at 30 µM (Human M4) | EC50 (Human M4) | SMILES | elevated liver transaminases, share of patients (patients) | effect on psychotic behavioral symptoms [1] |
| --- | --- | --- | --- | --- |
| 83% | 2500 nM | Cc1cnccc1Nc1cnc2c(c1)CN(c1nn3cnnc3cc1C)CC2 [Compound 364, 6-(7-methyl-[1,2,4]triazolo[4,3-b]pyridazin-6-yl)-N-(3-methylpyridin-4-yl)-5,6,7,8-tetrahydro-1,6-naphthyridin-3-amine] | – | – |
| 74% | 168 nM | [2H]C1([2H])Cc2ncc(Nc3ccncc3C)cc2C([2H])([2H])N1c1nn2cnnc2c(C)c1C [Compound 357, 6-(7,8-dimethyl-[1,2,4]triazolo[4,3-b]pyridazin-6-yl)-N-(3-methylpyridin-4-yl)-5,6,7,8-tetrahydro-1,6-naphthyridin-5,5,7,7-d4-3-amine] | – | – |
| 63% | 112 nM | Cc1cnccc1Nc1cnc2c(c1)CN(c1nn3cnnc3c(C)c1C)CC2 [Compound 365, 6-(7,8-dimethyl-[1,2,4]triazolo[4,3-b]pyridazin-6-yl)-N-(3-methylpyridin-4-yl)-5,6,7,8-tetrahydro-1,6-naphthyridin-3-amine] | – | – |
| 100% | 5 nM | Cc1cc2nncn2nc1N1CCc2ncc(Nc3ccncc3F)cc2C1 [Compound 360, N-(3-fluoropyridin-4-yl)-6-(7-methyl-[1,2,4]triazolo[4,3-b]pyridazin-6-yl)-5,6,7,8-tetrahydro-1,6-naphthyridin-3-amine] | – | – |
